Activity calls are given as the source filed them. The calls are words filed in the database; no cut-off is given here.
Experiments:
Acetylcholinesterase [1] = target: T1, Acetylcholinesterase (Rattus norvegicus, UniProt P37136); experiment: Inhibition of AChE in rat brain cortex homogenates using acetylthiocholine iodide as substrate in presence of BuChE inhibitor tetraisopropyl pyrophosphoramide measured after 15 mins by Ellman's method
T1 sequence (P37136 whole entry): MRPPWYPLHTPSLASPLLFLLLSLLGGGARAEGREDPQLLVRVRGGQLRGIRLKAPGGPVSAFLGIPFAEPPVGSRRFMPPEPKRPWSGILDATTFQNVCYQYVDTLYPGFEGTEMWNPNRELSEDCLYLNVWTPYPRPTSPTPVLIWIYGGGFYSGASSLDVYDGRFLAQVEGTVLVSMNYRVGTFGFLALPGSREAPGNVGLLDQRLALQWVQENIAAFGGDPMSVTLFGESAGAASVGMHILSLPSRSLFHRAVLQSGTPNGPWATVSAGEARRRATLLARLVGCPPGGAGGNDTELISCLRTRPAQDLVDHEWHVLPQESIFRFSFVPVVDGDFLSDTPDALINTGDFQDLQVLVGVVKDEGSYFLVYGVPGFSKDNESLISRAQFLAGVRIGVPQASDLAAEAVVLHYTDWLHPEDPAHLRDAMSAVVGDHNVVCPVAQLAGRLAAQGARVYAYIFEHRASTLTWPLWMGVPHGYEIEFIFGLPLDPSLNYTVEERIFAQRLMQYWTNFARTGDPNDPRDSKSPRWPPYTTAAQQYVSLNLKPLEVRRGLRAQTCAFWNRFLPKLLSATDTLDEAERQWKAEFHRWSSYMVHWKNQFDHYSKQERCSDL

Acetylcholinesterase [2] = target: Acetylcholinesterase (Electrophorus electricus, UniProt O42275); experiment: Inhibition of Electrophorus electricus AChE using acetylthiocholine iodide as substrate measured after 15 mins by Ellman's method
[3] = target: butyrylcholinesterase (BuChE) (Rattus norvegicus, UniProt Q9JKC1); experiment: Inhibition of BuChE in rat serum at 50 uM using butyrylthiocholine as substrate measured after 15 mins by Ellman's method relative to control; settings: probe butyrylthiocholine
[4] = Antioxidant activity assessed as inhibition of AAPH-induced peroxyl radical generation at 5 uM measured as trolox equivalent preincubated for 15 mins followed by AAPH addition measured every 60 secs for 90 mins by ORAC-FL assay; assay type: functional
[5] = target: Amyloid-beta precursor protein (Homo sapiens) (UniProt P05067); experiment: Inhibition of self-induced aggregation of HFIP-treated human amyloid beta (1 to 42 residues) at 25 uM after 24 hrs by thioflavin T-based fluorometric assay relative to control
[6] = Inhibition of Cu2+-mediated aggregation of human amyloid beta (1 to 42 residues) at 25 uM after 24 hrs by thioflavin T-based fluorometric assay relative to control; assay type: functional
[7] = target: T2, Amine oxidase [flavin-containing] A (Homo sapiens, UniProt P21397); experiment: Inhibition of recombinant human MAO-A expressed in baculovirus infected BTI insect cells at 10 uM using kynuramine as substrate incubated for 30 mins by fluorescence assay relative to control; settings: 0.5 h
T2 sequence (P21397 whole entry): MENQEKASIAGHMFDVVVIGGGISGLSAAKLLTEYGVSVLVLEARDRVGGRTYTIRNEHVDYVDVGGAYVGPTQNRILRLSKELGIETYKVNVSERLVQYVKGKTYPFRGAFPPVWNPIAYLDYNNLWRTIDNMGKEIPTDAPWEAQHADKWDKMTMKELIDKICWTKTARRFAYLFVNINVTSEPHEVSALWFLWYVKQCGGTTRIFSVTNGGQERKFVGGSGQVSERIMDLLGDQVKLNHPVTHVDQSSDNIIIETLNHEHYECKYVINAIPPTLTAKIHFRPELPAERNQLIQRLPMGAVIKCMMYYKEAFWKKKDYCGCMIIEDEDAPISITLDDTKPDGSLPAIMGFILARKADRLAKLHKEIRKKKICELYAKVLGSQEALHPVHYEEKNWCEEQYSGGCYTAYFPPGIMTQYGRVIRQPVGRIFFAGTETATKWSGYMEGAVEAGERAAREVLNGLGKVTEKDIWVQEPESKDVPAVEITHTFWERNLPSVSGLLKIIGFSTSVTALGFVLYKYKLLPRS

[8] = target: T3, Amine oxidase [flavin-containing] B (Homo sapiens, UniProt P27338); experiment: Inhibition of recombinant human MAO-B expressed in baculovirus infected BTI insect cells at 10 uM using kynuramine as substrate incubated for 30 mins by fluorescence assay relative to control; settings: 0.5 h
T3 sequence (P27338 whole entry): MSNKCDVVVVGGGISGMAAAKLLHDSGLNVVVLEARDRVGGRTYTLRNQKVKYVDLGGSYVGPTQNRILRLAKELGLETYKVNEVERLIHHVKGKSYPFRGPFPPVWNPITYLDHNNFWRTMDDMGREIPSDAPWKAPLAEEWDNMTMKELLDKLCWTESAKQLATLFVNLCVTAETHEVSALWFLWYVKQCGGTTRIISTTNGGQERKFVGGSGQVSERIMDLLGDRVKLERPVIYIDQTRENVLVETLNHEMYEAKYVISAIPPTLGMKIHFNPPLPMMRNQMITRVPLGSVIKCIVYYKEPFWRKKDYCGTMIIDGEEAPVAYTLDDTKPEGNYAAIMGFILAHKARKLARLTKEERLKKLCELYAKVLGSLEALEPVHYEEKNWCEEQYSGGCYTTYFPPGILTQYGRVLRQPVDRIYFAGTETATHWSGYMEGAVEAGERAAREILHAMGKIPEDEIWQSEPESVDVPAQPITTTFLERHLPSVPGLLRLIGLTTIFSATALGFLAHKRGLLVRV

[9] = target: T4, Acetylcholinesterase (Rattus norvegicus) (UniProt P37136); experiment: Inhibition of AChE in rat brain cortex homogenates at 50 uM using acetylthiocholine iodide as substrate in presence of BuChE inhibitor tetraisopropyl pyrophosphoramide measured after 15 mins by Ellman's method relative to control
T4 sequence (whole entry): T1 sequence (P37136 whole entry)

[10] = target: Acetylcholinesterase (Electrophorus electricus) (UniProt O42275); experiment: Inhibition of Electrophorus electricus AChE at 50 uM using acetylthiocholine iodide as substrate measured after 15 mins by Ellman's method relative to control
Acetylcholinesterase [11] = target: Acetylcholinesterase (Homo sapiens, UniProt P22303); experiment: Inhibition of human erythrocyte AChE using acetylthiocholine iodide as substrate measured after 15 mins by Ellman's method
PC-12 [12] = experiment: Neuroprotective activity against H2O2-induced damage in rat PC12 cells assessed as increase in cell viability at 100 uM pretreated for 2 hrs followed by H2O2 challenge measured after 24 hrs by MTT assay; assay type: functional, cell-based
PC-12 [13] = experiment: Neuroprotective activity against H2O2-induced damage in rat PC12 cells assessed as reduction in LDH release at 100 uM pretreated for 2 hrs followed by H2O2 challenge measured after 24 hrs; assay type: functional, cell-based

Acetylcholinesterase (Electrophorus electricus, UniProt O42275), sequence (O42275 whole entry): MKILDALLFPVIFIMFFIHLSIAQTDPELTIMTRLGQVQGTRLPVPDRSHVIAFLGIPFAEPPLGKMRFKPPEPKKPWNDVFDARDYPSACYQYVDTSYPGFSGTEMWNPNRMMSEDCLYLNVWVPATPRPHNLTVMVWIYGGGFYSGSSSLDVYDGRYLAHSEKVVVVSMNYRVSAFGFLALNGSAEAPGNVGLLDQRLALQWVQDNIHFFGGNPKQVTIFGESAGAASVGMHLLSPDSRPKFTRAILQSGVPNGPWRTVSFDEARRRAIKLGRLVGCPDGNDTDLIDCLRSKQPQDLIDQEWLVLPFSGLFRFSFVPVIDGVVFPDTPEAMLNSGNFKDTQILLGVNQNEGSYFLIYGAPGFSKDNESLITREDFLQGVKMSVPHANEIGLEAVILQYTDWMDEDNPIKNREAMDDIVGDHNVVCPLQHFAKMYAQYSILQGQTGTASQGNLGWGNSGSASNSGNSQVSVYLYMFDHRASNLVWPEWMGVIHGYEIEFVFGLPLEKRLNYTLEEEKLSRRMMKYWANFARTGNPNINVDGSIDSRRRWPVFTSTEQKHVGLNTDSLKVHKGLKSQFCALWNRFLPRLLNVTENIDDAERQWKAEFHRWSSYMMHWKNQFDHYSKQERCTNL
Amyloid-beta precursor protein (Homo sapiens), sequence (P05067 whole entry, the tested form may be a part): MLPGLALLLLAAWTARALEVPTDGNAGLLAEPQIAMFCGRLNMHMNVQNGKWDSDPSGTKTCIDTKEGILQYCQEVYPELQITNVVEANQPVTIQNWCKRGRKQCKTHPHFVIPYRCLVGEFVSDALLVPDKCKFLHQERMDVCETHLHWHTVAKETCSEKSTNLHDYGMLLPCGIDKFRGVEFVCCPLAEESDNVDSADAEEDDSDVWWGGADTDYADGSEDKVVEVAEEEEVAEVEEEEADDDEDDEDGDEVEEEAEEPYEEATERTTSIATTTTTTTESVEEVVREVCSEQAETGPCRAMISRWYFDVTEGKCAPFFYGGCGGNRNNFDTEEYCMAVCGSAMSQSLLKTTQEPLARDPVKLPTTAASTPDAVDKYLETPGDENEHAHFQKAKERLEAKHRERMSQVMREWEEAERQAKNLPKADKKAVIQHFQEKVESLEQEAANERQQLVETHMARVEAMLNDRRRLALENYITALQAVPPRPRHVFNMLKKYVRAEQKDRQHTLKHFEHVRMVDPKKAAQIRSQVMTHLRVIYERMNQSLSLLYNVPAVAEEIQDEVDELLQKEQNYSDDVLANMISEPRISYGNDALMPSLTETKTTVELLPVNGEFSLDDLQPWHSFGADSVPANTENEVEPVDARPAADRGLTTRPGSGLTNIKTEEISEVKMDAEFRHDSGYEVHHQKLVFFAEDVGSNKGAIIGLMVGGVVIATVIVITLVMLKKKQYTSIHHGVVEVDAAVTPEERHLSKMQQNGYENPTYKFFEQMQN
butyrylcholinesterase (BuChE), sequence (Q9JKC1 whole entry): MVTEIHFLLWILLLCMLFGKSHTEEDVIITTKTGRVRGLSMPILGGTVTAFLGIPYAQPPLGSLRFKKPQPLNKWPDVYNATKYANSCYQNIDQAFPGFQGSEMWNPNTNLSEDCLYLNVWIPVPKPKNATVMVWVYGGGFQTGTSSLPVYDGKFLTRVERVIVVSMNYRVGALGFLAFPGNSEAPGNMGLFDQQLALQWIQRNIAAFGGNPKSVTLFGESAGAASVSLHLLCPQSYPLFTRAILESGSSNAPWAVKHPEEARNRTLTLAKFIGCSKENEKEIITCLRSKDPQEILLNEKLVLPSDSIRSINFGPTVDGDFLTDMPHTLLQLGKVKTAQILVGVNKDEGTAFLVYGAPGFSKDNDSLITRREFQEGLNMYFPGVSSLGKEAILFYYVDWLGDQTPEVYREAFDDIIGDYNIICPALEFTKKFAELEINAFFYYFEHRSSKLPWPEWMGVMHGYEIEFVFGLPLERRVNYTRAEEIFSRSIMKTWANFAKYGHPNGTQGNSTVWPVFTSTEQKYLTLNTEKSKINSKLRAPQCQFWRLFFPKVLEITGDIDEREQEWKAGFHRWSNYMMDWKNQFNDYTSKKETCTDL
Acetylcholinesterase (Homo sapiens, UniProt P22303), sequence (P22303 whole entry): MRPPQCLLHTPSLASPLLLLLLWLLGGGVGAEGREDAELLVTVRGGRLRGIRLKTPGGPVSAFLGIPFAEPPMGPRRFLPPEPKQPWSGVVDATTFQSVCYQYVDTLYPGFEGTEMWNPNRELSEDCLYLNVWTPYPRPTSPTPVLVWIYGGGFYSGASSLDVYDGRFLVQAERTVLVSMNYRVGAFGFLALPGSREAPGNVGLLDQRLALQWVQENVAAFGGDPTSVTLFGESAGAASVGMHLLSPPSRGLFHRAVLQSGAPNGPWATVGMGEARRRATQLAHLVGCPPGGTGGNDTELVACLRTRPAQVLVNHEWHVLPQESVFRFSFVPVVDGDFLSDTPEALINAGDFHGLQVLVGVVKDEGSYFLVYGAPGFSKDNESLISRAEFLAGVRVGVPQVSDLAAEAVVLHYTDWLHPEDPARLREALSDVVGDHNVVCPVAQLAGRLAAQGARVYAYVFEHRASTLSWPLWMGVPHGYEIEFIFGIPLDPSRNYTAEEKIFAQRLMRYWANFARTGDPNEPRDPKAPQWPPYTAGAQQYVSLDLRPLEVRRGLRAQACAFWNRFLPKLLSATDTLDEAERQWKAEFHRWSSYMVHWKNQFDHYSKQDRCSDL
Acetylcholinesterase (Electrophorus electricus), sequence (O42275 24-633 limits assumed): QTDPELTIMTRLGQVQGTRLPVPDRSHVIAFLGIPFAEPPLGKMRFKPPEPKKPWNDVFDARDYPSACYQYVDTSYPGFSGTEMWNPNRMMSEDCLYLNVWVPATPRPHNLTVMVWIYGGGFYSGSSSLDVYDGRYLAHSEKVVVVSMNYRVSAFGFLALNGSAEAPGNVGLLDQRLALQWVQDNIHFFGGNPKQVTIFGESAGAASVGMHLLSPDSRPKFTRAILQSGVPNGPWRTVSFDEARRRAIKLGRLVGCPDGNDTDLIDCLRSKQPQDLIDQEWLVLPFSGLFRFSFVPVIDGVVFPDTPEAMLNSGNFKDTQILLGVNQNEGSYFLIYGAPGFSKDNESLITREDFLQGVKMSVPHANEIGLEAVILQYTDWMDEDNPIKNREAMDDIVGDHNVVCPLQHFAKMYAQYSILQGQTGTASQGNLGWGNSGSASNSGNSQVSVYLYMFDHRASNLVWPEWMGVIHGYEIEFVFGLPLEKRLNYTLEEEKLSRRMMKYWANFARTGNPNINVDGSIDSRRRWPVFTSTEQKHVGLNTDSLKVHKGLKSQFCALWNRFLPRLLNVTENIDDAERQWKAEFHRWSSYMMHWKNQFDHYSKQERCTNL

CCN(Cc1ccc(N(C)C)cc1)Cc1ccc(/C=C2\Oc3cc(OC)c(OC)cc3C2=O)cc1O
IC50 (Acetylcholinesterase [1]): 288 µM
IC50 (Acetylcholinesterase [2]): 431 µM
inhibition at 0.25 h, 50 µM [3]: < 5%
Activity [4]: 2.02 equiv
inhibition [5]: 80.5%
inhibition [6]: 68.5%
inhibition at 10 µM [7]: 6.8%
inhibition at 10 µM [8]: 19.2%

COc1cc2c(cc1OC)C(=O)/C(=C/c1ccc(O)cc1)O2
IC50 (Acetylcholinesterase [1]): 297 µM
IC50 (Acetylcholinesterase [2]): 64.4 µM
inhibition at 0.25 h, 50 µM [3]: < 5%
Activity [4]: 1.52 equiv
inhibition [5]: 15.7%
inhibition [6]: 26.7%
inhibition at 10 µM [7]: 12.1%
inhibition at 10 µM [8]: 36.1%

COc1cc2c(cc1OC)C(=O)/C(=C/c1ccc(CN3CCN(Cc4ccccc4)CC3)c(O)c1)O2
inhibition at 0.25 h, 50 µM [3]: < 5%
Activity [4]: 1.01 equiv
inhibition [5]: 41.8%
inhibition [6]: 38.7%
inhibition at 10 µM [7]: 15.3%
inhibition at 10 µM [8]: 6.9%
inhibition [9]: < 5%
inhibition [10]: < 5%

COc1cc2c(cc1OC)C(=O)/C(=C/c1ccc(CN3CCCC3)c(O)c1)O2
IC50 (Acetylcholinesterase [1]): 0.246 µM
IC50 (Acetylcholinesterase [2]): 2.7 µM
IC50 (Acetylcholinesterase [11]): 1.32 µM
inhibition at 0.25 h, 50 µM [3]: 19%
Activity [4]: 1.79 equiv
inhibition [5]: 57.2%
inhibition [6]: 38.8%
inhibition at 10 µM [7]: 62.9%
inhibition at 10 µM [8]: 37.9%

COc1cc2c(cc1OC)C(=O)/C(=C/c1cccc(O)c1)O2
IC50 (Acetylcholinesterase [1]): 131 µM
IC50 (Acetylcholinesterase [2]): 36.3 µM
inhibition at 0.25 h, 50 µM [3]: < 5%
Activity [4]: 1.51 equiv
inhibition [5]: 33.6%
inhibition [6]: 28.9%
inhibition at 10 µM [7]: 17.2%
inhibition at 10 µM [8]: 37%

Cc1c(C)c2c(c(C)c1O)CCC(C)(C(=O)O)O2 (stereo not given)
Activity (PC-12 [12]): Active
Activity (PC-12 [13]): Active

COc1cc2c(cc1OC)C(=O)/C(=C/c1ccc(CN3CCN(C)CC3)c(O)c1)O2
IC50 (Acetylcholinesterase [1]): 16.3 µM
IC50 (Acetylcholinesterase [2]): 11.9 µM
IC50 (Acetylcholinesterase [11]): 14 µM
inhibition at 0.25 h, 50 µM [3]: < 5%
Activity [4]: 1.78 equiv
inhibition [5]: 38.6%
inhibition [6]: 35.1%
inhibition at 10 µM [7]: 9.2%
inhibition at 10 µM [8]: 1%

CCN(Cc1ccc(/C=C2\Oc3cc(OC)c(OC)cc3C2=O)cc1O)Cc1ccccc1OC
IC50 (Acetylcholinesterase [1]): 44.9 µM
IC50 (Acetylcholinesterase [2]): 37 µM
inhibition at 0.25 h, 50 µM [3]: 5.21%
Activity [4]: 1.47 equiv
inhibition [5]: 74.9%
inhibition [6]: 71.2%
inhibition at 10 µM [7]: 9.7%
inhibition at 10 µM [8]: 26.4%

Reference: ChEMBL document CHEMBL4002586, “Aurone Mannich base derivatives as promising multifunctional agents with acetylcholinesterase inhibition, anti-β-amyloid aggragation and neuroprotective properties for the treatment of Alzheimer's disease” (Eur J Med Chem, 2017)
